{"source": "EPA's ToxValDB 9.5 (doi:10.2903/j.efsa.2014.3485)", "key": {"Colinus virginianus": {"test_system": "Colinus virginianus", "conditions": "oral"}, "Rattus norvegicus": {"test_system": "Rattus norvegicus", "conditions": "oral; for LD50: acute, mortality"}, "Neomysis kadiakensis": {"test_system": "Neomysis kadiakensis", "conditions": "chronic/long-term; duration: 28 days; reproduction"}, "Daphnia magna": {"test_system": "Daphnia magna", "conditions": "chronic/long-term; duration: 21 days; reproduction"}, "Hypoaspis aculeifer": {"test_system": "Hypoaspis aculeifer", "conditions": "chronic/long-term"}, "Mus musculus": {"test_system": "Mus musculus", "conditions": "developmental; development"}, "Apis mellifera": {"test_system": "Apis mellifera", "conditions": "acute, duration: 48 hours, mortality"}, "Canidae": {"test_system": "Canidae", "conditions": "chronic; duration: 1 years; oral; Dog Other; histopathology: nonneoplastic"}, "Typhlodromus pyri": {"test_system": "Typhlodromus pyri", "experiment": "LR50; higher = less toxic", "conditions": "not reported; mortality"}, "[1]": {"conditions": "reproduction developmental, diet, reproduction"}}}
{"smiles": "NC(Cc1ncn[nH]1)C(=O)O", "note": "(stereo not given) [1,2,4-Triazole-3-alanine]", "values": [{"measurement": "LC50", "setting": "Colinus virginianus; acute, diet, mortality", "result": "> 1370", "unit": "mg/kg-day"}, {"measurement": "LD50", "setting": "Rattus norvegicus", "result": "> 5000", "unit": "mg/kg-day"}]}
{"smiles": "CC(C)(C)C(O)(CCc1ccc(Cl)cc1)Cn1cncn1", "note": "(stereo not given) [Tebuconazole]", "values": [{"measurement": "NOEC", "setting": "Neomysis kadiakensis", "result": 0.035, "unit": "mg/L"}, {"measurement": "LC50", "setting": "Tagia sp.; acute, duration: 14 days, mortality", "result": 1380, "unit": "mg/kg"}, {"measurement": "NOEC", "setting": "Tagia sp.; chronic/long-term, duration: 56 days, reproduction", "result": 10, "unit": "mg/kg"}, {"measurement": "NOEC", "setting": "Daphnia magna", "result": 0.01, "unit": "mg/L"}, {"measurement": "NOEC", "setting": "Hypoaspis aculeifer", "result": 50, "unit": "mg/kg"}, {"measurement": "LC50", "setting": "Colinus virginianus; acute, diet, mortality", "result": "> 703", "unit": "mg/kg-day"}, {"measurement": "LD50", "setting": "Colinus virginianus; acute, mortality", "result": 1990, "unit": "mg/kg-day"}, {"measurement": "LOEL", "setting": "Colinus virginianus; [1]", "result": 12.4, "unit": "mg/kg-day"}, {"measurement": "NOEL", "setting": "Colinus virginianus; [1]", "result": 5.8, "unit": "mg/kg-day"}, {"measurement": "LD50", "setting": "Rattus norvegicus", "result": 1700, "unit": "mg/kg-day"}, {"measurement": "NOEL", "setting": "Rattus norvegicus; reproduction developmental, diet, body weight", "result": 10, "unit": "mg/kg-day"}, {"measurement": "LOAEL", "setting": "Mus musculus", "result": 10, "unit": "mg/kg-day"}, {"measurement": "LC50", "setting": "Oncorhynchus mykiss; acute, duration: 96 hours, mortality", "result": 4.4, "unit": "µg/mL"}, {"measurement": "NOEC", "setting": "Oncorhynchus mykiss; chronic/long-term, duration: 83 days, growth", "result": 0.012, "unit": "mg/L"}, {"measurement": "LD50", "setting": "Apis mellifera; dermal", "result": "> 200", "unit": "µg/piece"}, {"measurement": "LD50", "setting": "Apis mellifera; oral, unspecified", "result": "> 83", "unit": "µg/piece"}, {"measurement": "NOAEL", "setting": "Canidae", "result": 3, "unit": "mg/kg-day"}, {"measurement": "LR50", "setting": "Typhlodromus pyri", "result": 58, "unit": "g/ha"}]}
